Values quoted from earlier work in paper PMC8617944, “Preclinical Pharmacokinetics and Acute Toxicity in Rats of 5-{[(2E)-3-Bromo-3-carboxyprop-2-enoyl]amino}-2-hydroxybenzoic Acid: A Novel 5-Aminosalicylic Acid Derivative with Potent Anti-Inflammatory Activity” (Molecules, 2021).

Columns and labels:
[1] = design: method as in ref 32, 33 = [32]; doi:10.1016/j.arabjc.2016.12.026; 32. Cabrera Pérez L.C. Gutiérrez Sánchez M. Mendieta Wejebe J.E. Hernández Rodríguez M. Fragoso Vázquez M.J. Salazar J.R. Correa Basurto J. Padilla Martínez I.I. Rosales Hernández M.C. Novel 5-aminosa || [33]; 33. Correa Basurto J. Rosales Hernández M.C. Mendieta Wejebe J.E. Trujillo Ferrara J.G. Padilla Martínez I.I. Ramírez Durán L.A. Alemán González Duhart D. Síntesis de un derivado del ácido 5-aminosali; conditions: 0.408 mM; cited from earlier work
[2] = test system: rats; conditions: rat, in vivo, po; cited from earlier work

Structure (SMILES): Nc1ccc(O)c(C(=O)O)c1 [Compound 5-ASA, 5-aminosalicylic acid]
- reduction of the free radical DPPH [1]: about 85%
- LD50 [2]: 2800 mg/kg
